Data as given in the Kinase Knowledgebase extract (Sharma et al. 2016).
pIC50: −log10 of the molar value.

Biological target: PIK3CD (Human) (UniProt O00329)
Assay: Enzyme Assay

Chain of PIK3CD (Human) (O00329 whole entry, looked up): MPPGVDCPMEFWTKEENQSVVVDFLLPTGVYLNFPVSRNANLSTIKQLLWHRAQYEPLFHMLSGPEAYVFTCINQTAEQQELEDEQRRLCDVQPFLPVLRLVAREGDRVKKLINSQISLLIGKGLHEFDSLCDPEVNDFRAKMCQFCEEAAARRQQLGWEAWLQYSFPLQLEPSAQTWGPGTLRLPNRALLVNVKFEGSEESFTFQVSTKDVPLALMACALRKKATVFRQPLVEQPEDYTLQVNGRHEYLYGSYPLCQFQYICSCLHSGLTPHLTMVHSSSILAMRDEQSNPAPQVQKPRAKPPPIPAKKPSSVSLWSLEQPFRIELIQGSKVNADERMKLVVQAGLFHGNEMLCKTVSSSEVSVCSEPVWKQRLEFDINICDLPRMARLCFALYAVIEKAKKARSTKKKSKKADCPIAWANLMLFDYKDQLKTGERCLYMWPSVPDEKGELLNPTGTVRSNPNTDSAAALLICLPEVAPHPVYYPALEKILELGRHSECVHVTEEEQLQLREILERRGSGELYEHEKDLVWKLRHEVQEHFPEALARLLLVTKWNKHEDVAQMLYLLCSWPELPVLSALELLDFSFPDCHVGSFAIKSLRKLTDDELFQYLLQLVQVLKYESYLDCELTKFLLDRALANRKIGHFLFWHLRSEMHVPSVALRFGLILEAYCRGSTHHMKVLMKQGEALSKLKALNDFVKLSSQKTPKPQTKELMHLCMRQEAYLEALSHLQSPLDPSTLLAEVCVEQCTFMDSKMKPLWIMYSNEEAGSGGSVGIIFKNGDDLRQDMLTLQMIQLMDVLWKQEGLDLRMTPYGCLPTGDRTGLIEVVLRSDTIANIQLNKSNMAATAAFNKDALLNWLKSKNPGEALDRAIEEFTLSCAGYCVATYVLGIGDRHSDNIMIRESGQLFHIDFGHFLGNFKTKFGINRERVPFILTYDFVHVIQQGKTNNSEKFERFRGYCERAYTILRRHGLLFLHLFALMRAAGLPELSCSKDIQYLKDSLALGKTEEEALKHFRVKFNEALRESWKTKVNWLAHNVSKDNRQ

`Cc1cccc2c(=O)n(-c3cccc(Cl)c3)c([C@H](C)Nc3nc(N)nc(N)c3C#N)nc12` and `C[C@H](Nc1nc(N)nc(N)c1C#N)c1nc2ccc(F)cc2c(=O)n1-c1cccc(Cl)c1` cannot be ordered by pIC50: at least 9.00 for the first, 8.00 to 9.00 for the second.

First: CC[C@H](Nc1nc(N)nc(N)c1C#N)c1nc2cccc(F)c2c(=O)n1-c1cc(F)cc(C(F)F)c1
Second: CC[C@H](Nc1nc(N)nc(N)c1C#N)c1nc2cccc(F)c2c(=O)n1-c1cc(F)cc(F)c1
The pIC50 of the first is lower: 7.30 to 8.00 for the first, 8.00 to 9.00 for the second. The second is the more potent here.

`C[C@H](Nc1nc(N)nc(N)c1C#N)c1nc2cccc(Cl)c2c(=O)n1-c1c(F)cccc1F` and `C[C@H](Nc1nc(N)nc(N)c1C#N)c1nc2cccc(S(C)(=O)=O)c2c(=O)n1-c1c(F)cccc1F` fall in the same range of pIC50: 8.00 to 9.00 for the first, 8.00 to 9.00 for the second.

`C[C@H](Nc1nc(N)nc(N)c1C#N)c1nc2cccc(C(F)F)c2c(=O)n1-c1cc(F)cc(F)c1` and `C[C@H](Nc1nc(N)nc(N)c1C#N)c1nc2cccc(Cl)c2c(=O)n1-c1cc(F)cc(C(F)F)c1` cannot be ordered by pIC50: 8.00 to 9.00 for the first, at least 9.00 for the second.

First: CC(C)C[C@H](Nc1nc(N)nc(N)c1C#N)c1nc2cccc(Cl)c2c(=O)n1-c1cccc(C#N)c1
Second: C[C@H](Nc1nc(N)nc(N)c1C#N)c1nc2cccc(Cl)c2c(=O)n1-c1cccc(Cl)c1
The pIC50 of the first is lower: 7.30 to 8.00 for the first, at least 9.00 for the second. The second is the more potent here.

First: CC[C@H](Nc1nc(N)nc(N)c1C#N)c1nc2c(F)cccc2c(=O)n1-c1cc(F)cc(F)c1
Second: CC[C@H](Nc1nc(N)nc(N)c1C#N)c1nc2c(Cl)cccc2c(=O)n1-c1cc(F)cc(F)c1
The pIC50 of the first is higher: 8.00 to 9.00 for the first, 7.30 to 8.00 for the second.

`C[C@H](Nc1nc(N)nc(N)c1C#N)c1nc2cccc(Cl)c2c(=O)n1-c1cc(Cl)cc(Cl)c1` and `COc1cc(F)cc(-n2c([C@H](C)Nc3nc(N)nc(N)c3C#N)nc3cccc(Cl)c3c2=O)c1` fall in the same range of pIC50: 8.00 to 9.00 for the first, 8.00 to 9.00 for the second.

`CC[C@H](Nc1nc(N)nc(N)c1C#N)c1nc2cccc(C)c2c(=O)n1-c1cc(F)cc(F)c1` and `CC[C@H](Nc1nc(N)nc(N)c1C#N)c1nc2cccc(Cl)c2c(=O)n1-c1cc(F)cc(F)c1` cannot be ordered by pIC50: at least 9.00 for the first, 8.00 to 9.00 for the second.

`C[C@H](Nc1nc(N)nc(N)c1C#N)c1nc2cccc(S(C)(=O)=O)c2c(=O)n1-c1cccc(C(F)F)c1` and `C[C@H](Nc1nc(N)nc(N)c1C#N)c1nc2cccc(F)c2c(=O)n1-c1cccc(CC(F)F)c1` fall in the same range of pIC50: 8.00 to 9.00 for the first, 8.00 to 9.00 for the second.

`C[C@H](Nc1nc(N)nc(N)c1C#N)c1nc2cccc(C(N)=O)c2c(=O)n1-c1ccccc1` and `C[C@H](Nc1nc(N)nc(N)c1C#N)c1nc2cccc(O)c2c(=O)n1-c1ccccc1` cannot be ordered by pIC50: 8.00 to 9.00 for the first, at least 9.00 for the second.

`C[C@H](Nc1nc(N)nc(N)c1C#N)c1nc2c(F)ccc(Cl)c2c(=O)n1-c1cccc(C#N)c1` and `C[C@H](Nc1nc(N)nc(N)c1C#N)c1nc2c(Cl)ccc(Cl)c2c(=O)n1-c1ccccc1` cannot be ordered by pIC50: 8.00 to 9.00 for the first, at least 9.00 for the second.

First: CCC[C@H](Nc1nc(N)nc(N)c1C#N)c1nc2cccc(F)c2c(=O)n1-c1cc(F)cc(F)c1
Second: CC[C@H](Nc1nc(N)nc(N)c1C#N)c1nc2ccc(F)cc2c(=O)n1-c1cc(F)cc(F)c1
The pIC50 of the first is higher: 8.00 to 9.00 for the first, 7.30 to 8.00 for the second.

`C[C@H](Nc1nc(N)nc(N)c1C(N)=O)c1nc2cccc(Cl)c2c(=O)n1-c1ccccc1` and `C[C@H](Nc1nc(N)nc(N)c1C#N)c1nc2cccc(Cl)c2c(=O)n1-c1ccccc1` cannot be ordered by pIC50: at least 9.00 for the first, at least 9.00 for the second.

`C[C@H](Nc1nc(N)nc(N)c1C#N)c1nc2c(C#N)cccc2c(=O)n1-c1ccccc1` and `C[C@H](Nc1nc(N)nc(N)c1C#N)c1nc2c(Cl)cccc2c(=O)n1-c1ccccc1` fall in the same range of pIC50: 8.00 to 9.00 for the first, 8.00 to 9.00 for the second.

`CC[C@H](Nc1nc(N)nc(N)c1C#N)c1nc2c(C)cccc2c(=O)n1-c1cc(F)cc(F)c1` and `CC[C@H](Nc1nc(N)nc(N)c1C#N)c1nc2c(C)ccc(F)c2c(=O)n1-c1cc(F)cc(F)c1` fall in the same range of pIC50: 7.30 to 8.00 for the first, 7.30 to 8.00 for the second.

`CC[C@H](C)[C@H](Nc1nc(N)nc(N)c1C#N)c1nc2cccc(Cl)c2c(=O)n1-c1cc(F)cc(F)c1` and `CC(C)[C@H](Nc1nc(N)nc(N)c1C#N)c1nc2cccc(Cl)c2c(=O)n1-c1cc(F)cc(F)c1` fall in the same range of pIC50: 8.00 to 9.00 for the first, 8.00 to 9.00 for the second.

`C[C@H](Nc1nc(N)nc(N)c1C#N)c1nc2cccc(Cl)c2c(=O)n1-c1cccc(CC(F)F)c1` and `COc1cccc(-n2c([C@H](C)Nc3nc(N)nc(N)c3C#N)nc3cccc(Cl)c3c2=O)c1` cannot be ordered by pIC50: 8.00 to 9.00 for the first, at least 9.00 for the second.

`C[C@H](Nc1nc(N)nc(N)c1C#N)c1nc2cccc(Cl)c2c(=O)n1-c1cc(F)cc(C(F)(F)F)c1` and `C[C@H](Nc1nc(N)nc(N)c1C#N)c1nc2cccc(F)c2c(=O)n1-c1cccc(C(F)(F)F)c1` fall in the same range of pIC50: 8.00 to 9.00 for the first, 8.00 to 9.00 for the second.

First: C[C@H](Nc1nc(N)nc(N)c1C#N)c1nc2ccc(F)cc2c(=O)n1-c1cc(F)cc(F)c1
Second: C[C@H](Nc1nc(N)nc(N)c1C#N)c1nc2cc(F)c(F)cc2c(=O)n1-c1cc(F)cc(F)c1
The pIC50 of the first is higher: 8.00 to 9.00 for the first, 7.30 to 8.00 for the second. The first is the more potent here.

`CC[C@H](Nc1nc(N)nc(N)c1C#N)c1nc2ccc(F)cc2c(=O)n1-c1cccc(F)c1` and `CC[C@H](Nc1nc(N)nc(N)c1C#N)c1nc2c(F)ccc(F)c2c(=O)n1-c1cccc(F)c1` fall in the same range of pIC50: 8.00 to 9.00 for the first, 8.00 to 9.00 for the second.

`C[C@H](Nc1nc(N)nc(N)c1C#N)c1nc2c(Cl)cc(F)cc2c(=O)n1-c1cc(F)cc(F)c1` and `C[C@H](Nc1nc(N)nc(N)c1C#N)c1nc2c(Cl)ccc(F)c2c(=O)n1-c1cc(F)cc(F)c1` fall in the same range of pIC50: 8.00 to 9.00 for the first, 8.00 to 9.00 for the second.

`CC(C)[C@H](Nc1nc(N)nc(N)c1C#N)c1nc2cccc(Cl)c2c(=O)n1-c1ccccc1` was tested, and the pIC50 was at least 9.00.
